Experimental data taken from patent publication US9314485B2, “Use of PI3K M-TOR and AKT inhibitors to induce FOXP3 expression and generate regulatory T cells” (Medical Research Council, priority 2006, dated 2016).

How the values were obtained:
[1] = test system: naive CD62LhiCD4+CD25− LN T cells; assay: Foxp3 induction in newly activated naive CD4 T cells (intracellular staining); type: cell-based, mouse; details: for effect on Foxp3 expression (in words): newly activated T cells deprived of TCR signals; for percentage of cells expressing Foxp3: added 18 hours after activation with TCR signal deprivation, read within 24-48 hours; for Foxp3 expression in control cultures, TCR signal deprived cultures subtracted: serum free AIM-V medium, without anti TGFβ and SB431542, 24-48 hours / 2 days
Procedure: Mouse strains, cell sorting and culture Animal work was carried out according the Animals (Scientific Procedures) Act, UK. Lymph node (LN) cells were stained, analysed and sorted by flow cytometry as described (Cobb et al 2005 J. Exp. Med. 201: 1367-1373). Intracellular staining for Foxp3 protein was done as advised by the manufacturers (eBiosciences.com). The phosphorylation syatus of S6 ribosomal protein was determined using anti pS6 Ser235/236 (Cellsignaling cat.no. 2211, http://www.cellsignal.com) using the eBioscience Foxp3 staining kit and anti rabbit IgG-FITC or IgG-Cy5 (Jackson Immunoresearch). For induction of Foxp3 expression, sorted LN CD4+ CD25− CD62Lhi T cells were cultured at 1-3×10^6/ml with plate bound anti-TCRβ. […] After 18 hours the cells were either left in place for continued TCR stimulation or moved to uncoated wells with the indicated additives. To assess regulatory function, CD4 T cells cultured as indicated were titrated into round bottom wells containing either 1×10^5 CFSE labeled total LN cells or 5×10^4 CFSE labeled CD4^+ CD25^− T cells and 1×10^5 mitomycin-C treated (25 μg/ml, 20 min, 37° C.) T cell depleted splenocytes with the indicated concentrations of anti CD3 (2C11, Pharmingen). CD4 T cell CFSE profiles were recorded between 48 and 72 hours later.
Mice, Cell Sorting and Culture. Animal work was carried out according to the Animals (Scientific Procedures) Act, UK. Lymph node (LN) cells or thymocytes from wild type were stained, analysed and sorted by flow cytometry as described (Thompson et al., 2007 Immunity VoI 26 pp 335-344) from wild type (C57BL/6, BALB/c or C57BL/6×129) mice or from Rag1 deficient H2^b AND TCR transgenic mice. Antigen presenting cells were derived from bone marrow in the presence of GM-CSF and incubated with antigenic peptide. Intracellular staining for Foxp3 protein was done as advised by the manufacturers (eBiosciences.com). The phosphorylation status of S6 ribosomal protein was determined using anti pS6 Ser235/236 (Cell Signaling cat.no. 2211, http://www.cellsignal.com) using the eBioscience Foxp3 staining kit and anti rabbit IgG-FITC or IgG-Cy5 (Jackson ImmunoResearch). […] After 18 hours the cells were either left in place for continued TCR stimulation or moved to uncoated wells with the indicated additives. To assess regulatory function, CD4 T cells cultured as indicated were titrated into round bottom wells containing either 1×10^5 CFSE labeled total LN cells or 5×10^4 CFSE labeled CD4^+CD25^− T cells and 1×10^5 mitomycin-C treated (25 μg/ml, 20 min, 37° C.) T cell depleted splenocytes with the indicated concentrations of anti CD3 (2C11, Pharmingen). CD4 T cell CFSE profiles were recorded between 48 and 72 hours later.

PI3KC2α = PI3KC2α (Homo sapiens, UniProt O00443); details: unit inferred; read-out: Specificity for PI3KC2α (IC50 determined in vitro); cited from earlier work
Sequence of PI3KC2α (O00443 whole entry, species assumed): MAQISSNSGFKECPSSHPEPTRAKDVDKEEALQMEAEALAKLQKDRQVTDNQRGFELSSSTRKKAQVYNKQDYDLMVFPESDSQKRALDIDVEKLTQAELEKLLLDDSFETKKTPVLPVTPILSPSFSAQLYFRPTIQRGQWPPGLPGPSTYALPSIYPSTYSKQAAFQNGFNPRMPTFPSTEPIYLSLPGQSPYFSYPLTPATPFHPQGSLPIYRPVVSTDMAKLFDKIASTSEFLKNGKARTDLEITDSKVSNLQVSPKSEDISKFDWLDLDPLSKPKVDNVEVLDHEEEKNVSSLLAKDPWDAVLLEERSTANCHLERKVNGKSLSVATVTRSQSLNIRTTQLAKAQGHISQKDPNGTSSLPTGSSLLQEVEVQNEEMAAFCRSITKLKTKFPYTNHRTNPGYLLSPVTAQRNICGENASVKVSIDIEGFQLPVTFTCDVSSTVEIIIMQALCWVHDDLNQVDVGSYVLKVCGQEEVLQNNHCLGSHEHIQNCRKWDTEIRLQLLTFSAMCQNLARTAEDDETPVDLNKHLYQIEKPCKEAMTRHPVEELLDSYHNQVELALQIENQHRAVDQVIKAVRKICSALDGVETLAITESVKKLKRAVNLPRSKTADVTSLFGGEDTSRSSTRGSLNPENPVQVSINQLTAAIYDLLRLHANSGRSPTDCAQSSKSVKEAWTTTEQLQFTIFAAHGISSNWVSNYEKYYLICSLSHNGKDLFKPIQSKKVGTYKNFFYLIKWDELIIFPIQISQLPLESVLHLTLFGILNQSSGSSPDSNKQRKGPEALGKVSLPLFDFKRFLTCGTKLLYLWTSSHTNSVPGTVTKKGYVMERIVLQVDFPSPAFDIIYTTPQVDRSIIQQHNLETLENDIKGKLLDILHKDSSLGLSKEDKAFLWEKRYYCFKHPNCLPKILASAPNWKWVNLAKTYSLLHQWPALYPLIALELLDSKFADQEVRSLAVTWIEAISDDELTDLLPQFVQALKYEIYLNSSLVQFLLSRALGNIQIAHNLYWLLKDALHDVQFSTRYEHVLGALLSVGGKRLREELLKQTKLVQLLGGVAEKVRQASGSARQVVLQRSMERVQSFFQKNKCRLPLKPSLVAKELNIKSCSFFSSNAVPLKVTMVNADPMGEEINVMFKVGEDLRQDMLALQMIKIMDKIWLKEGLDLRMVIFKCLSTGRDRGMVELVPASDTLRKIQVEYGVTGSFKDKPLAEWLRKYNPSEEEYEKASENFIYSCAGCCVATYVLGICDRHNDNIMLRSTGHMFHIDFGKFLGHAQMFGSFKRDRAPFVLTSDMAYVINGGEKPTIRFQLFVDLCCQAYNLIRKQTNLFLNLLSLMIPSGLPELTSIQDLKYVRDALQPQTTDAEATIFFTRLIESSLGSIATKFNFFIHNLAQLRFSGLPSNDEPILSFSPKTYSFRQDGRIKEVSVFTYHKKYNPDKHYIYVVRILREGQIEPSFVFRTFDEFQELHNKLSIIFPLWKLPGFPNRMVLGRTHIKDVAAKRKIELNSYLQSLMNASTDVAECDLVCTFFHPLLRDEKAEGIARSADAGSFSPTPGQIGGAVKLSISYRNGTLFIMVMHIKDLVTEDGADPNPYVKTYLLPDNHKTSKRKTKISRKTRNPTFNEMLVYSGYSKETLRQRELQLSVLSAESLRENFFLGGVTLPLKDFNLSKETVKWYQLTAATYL

PI4KIIα = PI4KIIα (Homo sapiens, UniProt Q9BTU6); details: unit inferred; read-out: Specificity for PI4KIIα (IC50 determined in vitro); cited from earlier work
Sequence of PI4KIIα (Q9BTU6 whole entry): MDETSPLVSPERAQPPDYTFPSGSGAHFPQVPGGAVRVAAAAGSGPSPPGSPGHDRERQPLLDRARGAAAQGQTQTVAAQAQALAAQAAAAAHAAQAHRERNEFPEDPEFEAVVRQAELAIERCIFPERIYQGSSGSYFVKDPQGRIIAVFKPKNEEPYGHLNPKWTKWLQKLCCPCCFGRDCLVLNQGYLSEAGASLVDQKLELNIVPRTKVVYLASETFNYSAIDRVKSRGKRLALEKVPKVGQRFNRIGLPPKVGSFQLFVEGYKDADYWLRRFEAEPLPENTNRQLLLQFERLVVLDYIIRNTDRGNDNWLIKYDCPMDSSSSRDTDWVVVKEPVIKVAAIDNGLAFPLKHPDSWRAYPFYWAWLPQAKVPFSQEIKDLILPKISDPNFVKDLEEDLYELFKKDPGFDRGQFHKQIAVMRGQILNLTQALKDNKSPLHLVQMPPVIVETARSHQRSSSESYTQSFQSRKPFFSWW

PI4KIIIα = PI4KIIIα (Homo sapiens, UniProt P42356); details: unit inferred; read-out: Specificity for PI4KIIIα (IC50 determined in vitro); cited from earlier work
Sequence of PI4KIIIα (P42356 whole entry): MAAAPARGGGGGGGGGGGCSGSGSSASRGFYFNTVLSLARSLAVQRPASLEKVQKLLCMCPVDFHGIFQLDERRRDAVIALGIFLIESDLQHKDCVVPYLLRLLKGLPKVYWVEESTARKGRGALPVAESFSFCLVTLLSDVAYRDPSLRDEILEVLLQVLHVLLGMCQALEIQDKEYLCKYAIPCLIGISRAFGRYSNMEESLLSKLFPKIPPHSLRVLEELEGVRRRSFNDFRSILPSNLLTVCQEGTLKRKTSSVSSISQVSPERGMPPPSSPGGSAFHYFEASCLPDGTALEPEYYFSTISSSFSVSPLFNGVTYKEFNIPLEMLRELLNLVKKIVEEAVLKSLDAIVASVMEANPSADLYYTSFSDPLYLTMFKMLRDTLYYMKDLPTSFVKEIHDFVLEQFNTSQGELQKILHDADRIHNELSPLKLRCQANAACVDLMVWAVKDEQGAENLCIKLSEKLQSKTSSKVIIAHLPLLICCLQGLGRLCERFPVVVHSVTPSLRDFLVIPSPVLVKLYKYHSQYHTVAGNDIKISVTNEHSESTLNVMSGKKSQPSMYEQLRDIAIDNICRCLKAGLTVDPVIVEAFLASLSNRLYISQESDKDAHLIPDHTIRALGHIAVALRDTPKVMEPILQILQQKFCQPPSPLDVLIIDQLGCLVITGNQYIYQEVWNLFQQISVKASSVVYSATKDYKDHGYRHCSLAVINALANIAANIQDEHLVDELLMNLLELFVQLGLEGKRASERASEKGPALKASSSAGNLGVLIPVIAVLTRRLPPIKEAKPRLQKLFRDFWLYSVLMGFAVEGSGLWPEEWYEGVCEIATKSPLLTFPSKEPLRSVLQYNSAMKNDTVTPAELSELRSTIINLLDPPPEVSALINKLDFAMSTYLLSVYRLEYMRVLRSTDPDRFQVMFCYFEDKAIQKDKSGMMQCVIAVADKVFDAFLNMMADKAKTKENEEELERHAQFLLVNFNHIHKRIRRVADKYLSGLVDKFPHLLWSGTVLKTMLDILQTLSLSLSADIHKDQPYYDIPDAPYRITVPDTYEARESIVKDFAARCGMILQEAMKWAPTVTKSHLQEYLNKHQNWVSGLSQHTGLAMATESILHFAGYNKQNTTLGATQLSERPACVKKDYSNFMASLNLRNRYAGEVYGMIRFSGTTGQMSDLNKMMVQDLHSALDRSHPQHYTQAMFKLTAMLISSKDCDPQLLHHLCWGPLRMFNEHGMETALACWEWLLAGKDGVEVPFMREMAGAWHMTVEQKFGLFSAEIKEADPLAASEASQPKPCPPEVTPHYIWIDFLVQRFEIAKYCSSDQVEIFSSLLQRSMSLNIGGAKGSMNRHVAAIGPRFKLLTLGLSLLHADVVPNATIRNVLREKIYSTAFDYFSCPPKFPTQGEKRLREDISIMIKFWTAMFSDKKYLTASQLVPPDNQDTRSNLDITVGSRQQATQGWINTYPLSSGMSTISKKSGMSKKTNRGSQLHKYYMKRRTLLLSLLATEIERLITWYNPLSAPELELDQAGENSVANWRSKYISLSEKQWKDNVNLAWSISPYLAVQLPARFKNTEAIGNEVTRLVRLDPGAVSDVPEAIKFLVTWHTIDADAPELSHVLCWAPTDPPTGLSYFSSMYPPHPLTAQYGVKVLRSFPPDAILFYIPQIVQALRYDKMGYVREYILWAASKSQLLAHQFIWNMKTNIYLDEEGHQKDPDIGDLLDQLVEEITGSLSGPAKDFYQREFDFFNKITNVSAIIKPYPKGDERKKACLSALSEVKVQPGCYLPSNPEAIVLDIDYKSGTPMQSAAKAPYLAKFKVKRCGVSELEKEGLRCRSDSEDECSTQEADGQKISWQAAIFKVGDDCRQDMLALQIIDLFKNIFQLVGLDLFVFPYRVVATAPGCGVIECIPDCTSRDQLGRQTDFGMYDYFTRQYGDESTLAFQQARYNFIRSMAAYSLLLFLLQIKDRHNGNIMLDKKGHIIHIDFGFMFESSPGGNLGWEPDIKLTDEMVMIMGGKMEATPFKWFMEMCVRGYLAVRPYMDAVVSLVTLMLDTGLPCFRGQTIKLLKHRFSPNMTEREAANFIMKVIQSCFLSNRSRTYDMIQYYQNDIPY

ATR = ATR (Homo sapiens, UniProt Q13535); details: unit inferred; read-out: Specificity for ATR (IC50 determined in vitro); cited from earlier work
ATM = ATM (Homo sapiens, UniProt Q13315); details: unit inferred; read-out: Specificity for ATM (IC50 determined in vitro); cited from earlier work
PI4P5KIα [2] = details: second PI4P5KIα line; unit inferred; read-out: Specificity for PI4P5KIα (IC50 determined in vitro); cited from earlier work
PI3KC2β = PI3KC2β (Homo sapiens, UniProt O00750); details: unit inferred; read-out: Specificity for PI3KC2β (IC50 determined in vitro); cited from earlier work
PI4KIIIβ = PI4KIIIβ (Homo sapiens, UniProt Q9UBF8); details: unit inferred; read-out: Specificity for PI4KIIIβ (IC50 determined in vitro); cited from earlier work
DNA-PK = DNA-PK (Homo sapiens, UniProt P78527); details: unit inferred; read-out: Specificity for DNA-PK (IC50 determined in vitro); cited from earlier work
mTORC1 = mTORC1 (Homo sapiens, UniProt P42345); details: unit inferred; read-out: Specificity for mTORC1 (IC50 determined in vitro); cited from earlier work
PI4P5KIα [3] = target: PI4P5KIα (Homo sapiens, UniProt Q99755); details: first PI4P5KIα line; unit inferred; read-out: Specificity for PI4P5KIα (IC50 determined in vitro); cited from earlier work
Sequence of PI4P5KIα (Homo sapiens, UniProt Q99755) (Q99755 whole entry): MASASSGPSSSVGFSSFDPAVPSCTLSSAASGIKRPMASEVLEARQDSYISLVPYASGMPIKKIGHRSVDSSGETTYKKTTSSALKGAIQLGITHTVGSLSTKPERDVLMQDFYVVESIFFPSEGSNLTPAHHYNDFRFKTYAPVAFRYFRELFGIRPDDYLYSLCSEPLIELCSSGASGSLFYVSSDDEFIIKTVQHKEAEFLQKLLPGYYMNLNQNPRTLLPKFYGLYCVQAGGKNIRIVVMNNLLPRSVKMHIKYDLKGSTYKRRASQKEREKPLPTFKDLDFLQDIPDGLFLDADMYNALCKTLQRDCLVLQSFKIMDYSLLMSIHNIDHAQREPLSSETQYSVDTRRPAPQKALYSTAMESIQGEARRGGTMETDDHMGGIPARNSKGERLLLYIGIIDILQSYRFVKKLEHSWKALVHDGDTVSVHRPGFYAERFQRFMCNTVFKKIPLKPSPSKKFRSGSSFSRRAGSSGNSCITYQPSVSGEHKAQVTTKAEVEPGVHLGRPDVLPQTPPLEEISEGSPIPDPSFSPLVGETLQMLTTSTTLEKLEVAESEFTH

PI5P4KIIβ = target: T1, PI5P4KIIβ (Homo sapiens, UniProt P78356); details: unit inferred; read-out: Specificity for PI5P4KIIβ (IC50 determined in vitro); cited from earlier work
T1 sequence (P78356 1-416): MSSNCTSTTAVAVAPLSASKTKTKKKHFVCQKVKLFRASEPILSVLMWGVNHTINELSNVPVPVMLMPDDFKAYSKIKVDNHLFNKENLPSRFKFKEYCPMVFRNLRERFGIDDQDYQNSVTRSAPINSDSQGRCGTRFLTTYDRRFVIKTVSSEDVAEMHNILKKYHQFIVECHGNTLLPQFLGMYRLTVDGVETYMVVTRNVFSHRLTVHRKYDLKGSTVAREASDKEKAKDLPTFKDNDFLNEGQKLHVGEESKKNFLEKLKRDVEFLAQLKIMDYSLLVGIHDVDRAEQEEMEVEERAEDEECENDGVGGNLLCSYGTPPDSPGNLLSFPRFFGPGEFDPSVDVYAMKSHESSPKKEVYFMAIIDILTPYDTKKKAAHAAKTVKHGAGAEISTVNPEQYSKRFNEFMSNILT

[4] = serum free AIM-V, anti TGFβ 3 μg/ml, SB431542 20 μM

O=c1[nH]c2ccccc2n1C1CCN(Cc2ccc(-c3nc4cc5nc[nH]c5cc4nc3-c3ccccc3)cc2)CC1 [Akti-1/2]
effect on Foxp3 expression (in words) [1]: enhanced Foxp3 expression | effect on Foxp3 expression (in words) ([1]; listed as Akti 1/2): induces Foxp3 expression

CC(C)C[C@H](NC(=O)[C@H](Cc1ccccc1)C[C@@H](O)[C@H](Cc1ccccc1)NC(=O)OC(C)(C)C)C(=O)N[C@@H](Cc1ccccc1)C(N)=O [L-685458]
effect on Foxp3 expression (in words) [1]: None of these detectably enhanced the expression of Foxp3

O=c1cc(N2CCNCC2)oc2c(-c3ccccc3)cccc12 [Ly303511, 2-piperazinyl-8-phenyl-4H-1-benzopyran-4-one]
percentage of cells expressing Foxp3 [1]: 6.6±3.0%

Oc1cccc(-c2nc(N3CCOCC3)c3oc4ncccc4c3n2)c1 [PI-103]
increase in Foxp3 expressing cells over and above TCR deprivation alone ([1]; IC-87114 down to 0.01 μM): > 20% | effect on Foxp3 expression (in words) [1]: strongly induced Foxp3 | Foxp3 expression in control cultures, TCR signal deprived cultures subtracted [1]: 35.1±3.8% | IC50 (PI3KC2α): ~1000 nM | IC50 (PI4KIIα): > 100000 nM | IC50 (PI4KIIIα): > 100000 nM | IC50 (ATR): 850 nM | IC50 (ATM): 920 nM | IC50 (PI4P5KIα [2]): > 100000 nM

Cc1ccc([N+](=O)[O-])cc1S(=O)(=O)N(C)/N=C/c1cnc2ccc(Br)cn12 [PIK75]
toxicity in the Foxp3 induction assay ([1]; over the duration of the assay): toxicity over the duration of our assay

COc1ccc2c(c1OC)N=C(NC(=O)c1cccnc1)N1CCN=C21 [PIK90]
effect on Foxp3 expression at 0.1 μM ([1]; 0.1 μM): strongly induced Foxp3 | Foxp3 expression in control cultures, TCR signal deprived cultures subtracted [1]: 36.0±12.9% | IC50 (PI3KC2α): 47 nM | IC50 (PI3KC2β): 64 nM | IC50 (PI4KIIα): > 100000 nM | IC50 (PI4KIIIα): 830 nM | IC50 (PI4KIIIβ): 3100 nM | IC50 (ATR): 15000 nM | IC50 (ATM): 610 nM | IC50 (DNA-PK): 13 nM | IC50 (mTORC1): 1050 nM | IC50 (PI4P5KIα [3]): > 100000 nM | IC50 (PI4P5KIα [2]): > 100000 nM | IC50 (PI5P4KIIβ): > 100000 nM

O=C1NC(=O)/C(=C\c2ccc3nccnc3c2)S1 [SA-605240]
effect on Foxp3 expression (in words) ([1]; listed as AS-605240): affected Foxp3 only at concentrations far in excess of its IC50 for p110γ

NC(=O)c1ccc(-c2nc(-c3ccc4c(c3)OCO4)c(-c3ccccn3)[nH]2)cc1 [SB431542]
effect on Foxp3 induction by PI3K/mTOR inhibitors [1, 4]: had no effect | reduction of Foxp3 induction by TGFβ [1, 4]: 96%

COC[C@H]1OC(=O)c2coc3c2[C@@]1(C)C1=C(C3=O)[C@@H]2CCC(=O)[C@@]2(C)C[C@H]1OC(C)=O [Wortmannin]
percentage of cells expressing Foxp3 [1]: 17.3±5.3%

CO[C@H]1C[C@@H]2CC[C@@H](C)[C@@](O)(O2)C(=O)C(=O)N2CCCC[C@H]2C(=O)O[C@H]([C@H](C)C[C@@H]2CC[C@@H](O)[C@H](OC)C2)CC(=O)[C@H](C)/C=C(\C)[C@@H](O)[C@@H](OC)C(=O)[C@H](C)C[C@H](C)/C=C/C=C/C=C/1C [rapamycin]
% Foxp3+ cells (nutrient deprivation experiment) ([1]; 18 hour activated CD4 T cells): 25 % Foxp3^+ | percentage of cells expressing Foxp3 [1]: 26.8±14.4% | Foxp3 expression in control cultures, TCR signal deprived cultures subtracted [1]: 28.6±9.0%
